Measured values reported in patent US8404651B2, “Compositions and methods for treating viral infections” (priority 2008, dated 2013).
Values joined by “and” are separate entries in the source; they are usually repeats but may differ in a detail not shown here. Equal entries are not always repeated.

Columns and labels:
[1] = system: WP2 uvrA; assay: In vitro bacterial mutagenicity assay (pre-incubation), strain WP2 uvrA; conditions: for Number of revertants x1, x2, x3: individual plates
Description: (§1) Dispense 100 microliter aliquots of the appropriate bacterial cultures into sample tubes stored on ice. Dispense aliquots of the vehicle, positive controls or dose formulations into the appropriate sample tubes. 2 mL top Agar and HBT cap was added to the sample tube, inverted three times and poured into MG plate. The lid was replaced on the plate and left on a level surface to let the agar harden. The plates were incubated in an incubator for 48 to 72 h. The background lawn and count the number of revertants was checked for each plate.

[2] = 14 day tolerability study in uPA SCID (KMT) mouse; type: in vivo; conditions: for tolerability: 300 mg/kg once a day by oral gavage for 14 days, KMT mice
Description: Two separate groups of animals were treated with vehicle control or with a daily drug dose of 300 mg/kg for 14 days. Blood samples were taken 15 minutes after the drug doses on Day 1 (first dose), Day 7 and Day 14 (last dose) for measurement of the concentration of the drug in the serum of study animals. Body weights and health index scores were monitored daily in order to assess tolerance of the study animals to the dosing procedure and the drug. […] The solution was used to dose animals in a volume of 7.5 ml/kg. The citric acid buffer was also used for dosing of the vehicle control animals.
Ten KMT transgenic animals with low engraftment of human liver cells (hAAT values less than 20 at 6 weeks) were allocated to this study. Individual body weights of animals were recorded prior to treatment and daily during the study. Animals were also evaluated once a day (at morning dose administration) for clinical signs and monitored for morbidity and mortality. The study animals were allocated into 2 groups of 5 animals. Compound 2 or citric acid vehicle control were administered once a day by oral gavage employing a sterile syringe and feeding needle for each animal. Dosing volume was 7.5 mL/kg (150 μL/20 grams body weight) for all groups. The volume was adjusted based on the daily body weight of each individual animal. […] The study started on Day 1 with the first drug dose administered in the morning and continued up to Day 14, the last day of drug treatment. Blood was collected via the central tail artery from all animals of each group on Day 1, fifteen minutes after the first drug dose, on Day 7, fifteen minutes after the drug dose, and on Day 14, fifteen minutes after the last drug dose. The blood samples were allowed to clot and the serum removed from above the clot pellet. Serum samples were stored at −80° C. prior to shipment to the study client. […]
Individual body weights of the animals were recorded prior to treatment and daily during the course of the study. The animals were also evaluated daily for clinical signs and monitored for morbidity and mortality. […]

[3] = system: HCV replicon cell line, AVA5 [sub-genomic (CON1), genotype 1b]; assay: microbe, parasite or virus in culture; type: cell-based; conditions: Hepatitis C virus
Description: Primary anti-HCV assay-Antiviral activity against HCV was assessed in a 3-day assay (Okuse, et al., 2005; Antiviral. Res. 65:23; Korba, et al., 2008, Antiviral Res. 77:56) using the stably-expressing HCV replicon cell line, AVA5 [sub-genomic (CON1), genotype 1b](Blight, et al., 2000, Science 290:1972) maintained as sub-confluent cultures on 96-well plates. Antiviral activity was determined by blot hybridization analysis of intracellular HCV RNA (normalized to the level of cellular B-actin RNA in each culture sample). Cytotoxicity was assessed by neutral red dye uptake in cultures maintained in parallel plates.
EC50, EC90, and CC50 values were calculated by linear regression analysis (MS EXCEL®, QUATTROPRO®) using data combined from all treated cultures Korba & Gerin, 1992, Antivir. Res. 19:55; Okuse, et al., 2005, Antivir. Res. 65:23). Standard deviations for EC50 and EC90 values were calculated from the standard errors generated by the regression analyses. […] The Selectivity index (S.I.) was calculated as CC50/EC50. Recombinant human interferon 2b (PBL laboratories, Inc.) was used as an assay control.
For each combination of agents, three concentration ratios, centered on the use of the compounds at equipotent antiviral concentrations, were used. A dilution series (six three-fold-concentration steps, beginning at the approximate EC90) was then generated with the concentration ratio of the two agents remaining the same in each dilution step. Toxicity analysis was performed as described above for the monotherapies. Analysis of drug interactions in the combination studies was determined by the use of the […] program (Biosoft, Inc., Cambridge, United Kingdom). This program evaluates synergy, additivity, or antagonism by use of several methodologies, including that of Chou and Talalay with a statistical analysis employing the Monte Carlo technique to provide confidence limits, fraction-affected-confidence interval (FA-CI) plots, isobolograms, and median-effect plots. (Belenkii, M. S. Schinazi, R. A method for the analysis of combination therapies with statistical analysis. Antiviral Res. 25, 11, 2005).

[4] = system: TA98; assay: In vitro bacterial mutagenicity assay (pre-incubation), strain TA98; conditions: for Number of revertants x1, x2, x3: individual plates
Description: as §1

[5] = TA98, absence of S9, 50 μg/plate
[6] = TA98, absence of S9, 158 μg/plate
[7] = TA98, absence of S9, 500 μg/plate
[8] = TA98, absence of S9, 1581 μg/plate
[9] = TA98, absence of S9, 5000 μg/plate
[10] = TA98, presence of S9, 50 μg/plate
[11] = TA98, presence of S9, 158 μg/plate
[12] = TA98, presence of S9, 500 μg/plate
[13] = TA98, presence of S9, 1581 μg/plate
[14] = TA98, presence of S9, 5000 μg/plate

COC1C(OP(=O)(OC[C@H]2O[C@@H](n3cnc4c(N)ncnc43)CC2O)SCOC(=O)OC(C)C)[C@@H](CO)O[C@H]1n1ccc(=O)[nH]c1=O (stereo partly drawn) [Compound 2, S-isopropylcarbonyloxymethyl thiophosphate (6k) of 3′dApsU2′OMe]
Number of revertants mean ([1]; absence of S9, 50 μg/plate): 41
Number of revertants x1, x2, x3 ([1]; absence of S9, 50 μg/plate): 34 and 43 and 45
Number of revertants mean ([1]; absence of S9, 158 μg/plate): 42
Number of revertants x1, x2, x3 ([1]; absence of S9, 158 μg/plate): 49 and 44 and 33
Number of revertants mean ([1]; absence of S9, 500 μg/plate): 34
Number of revertants x1, x2, x3 ([1]; absence of S9, 500 μg/plate): 39 and 26 and 38
Number of revertants mean ([1]; absence of S9, 1581 μg/plate): 50
Number of revertants x1, x2, x3 ([1]; absence of S9, 1581 μg/plate): 44 and 56 and 51
Number of revertants mean ([1]; absence of S9, 5000 μg/plate): 52
Number of revertants x1, x2, x3 ([1]; absence of S9, 5000 μg/plate): 62 and 39 and 54
Number of revertants mean ([1]; presence of S9, 50 μg/plate): 44
Number of revertants x1, x2, x3 ([1]; presence of S9, 50 μg/plate): 48 and 43 and 42
Number of revertants mean ([1]; presence of S9, 158 μg/plate): 43
Number of revertants x1, x2, x3 ([1]; presence of S9, 158 μg/plate): 46 and 43 and 40
Number of revertants mean ([1]; presence of S9, 500 μg/plate): 41
Number of revertants x1, x2, x3 ([1]; presence of S9, 500 μg/plate): 36 and 46 and 40
Number of revertants mean ([1]; presence of S9, 1581 μg/plate): 47
Number of revertants x1, x2, x3 ([1]; presence of S9, 1581 μg/plate): 52 and 43 and 45
Number of revertants mean ([1]; presence of S9, 5000 μg/plate): 62
Number of revertants x1, x2, x3 ([1]; presence of S9, 5000 μg/plate): 61 and 60 and 65
body weight change ([2]; 300 mg/kg daily, Day 1 to Day 14, one animal in the drug group (F187)): small decrease in body weight
tolerability [2]: generally well tolerated
tolerability ([2]; listed as drug): well tolerated
EC50 ([3]; Ava5, read-out: EC50 HCV type 1B): 1 µM
EC90 ([3]; Ava5, read-out: EC90 HCV type 1B): 6 µM
Number of revertants mean [4, 5]: 22
Number of revertants x1, x2, x3 [4, 5]: 18 and 15 and 33
Number of revertants mean [4, 6]: 27
Number of revertants x1, x2, x3 [4, 6]: 28 (2×) and 25
Number of revertants mean [4, 7]: 24
Number of revertants x1, x2, x3 [4, 7]: 21 and 20 and 31
Number of revertants mean [4, 8]: 25
Number of revertants x1, x2, x3 [4, 8]: 24 and 18 and 33
Number of revertants mean [4, 9]: 24
Number of revertants x1, x2, x3 [4, 9]: 27 and 26 and 20
Number of revertants mean [4, 10]: 45
Number of revertants x1, x2, x3 [4, 10]: 43 and 39 and 53
Number of revertants mean [4, 11]: 40
Number of revertants x1, x2, x3 [4, 11]: 37 and 48 and 34
Number of revertants mean [4, 12]: 39
Number of revertants x1, x2, x3 [4, 12]: 31 and 40 and 46
Number of revertants mean [4, 13]: 45
Number of revertants x1, x2, x3 [4, 13]: 44 (2×) and 46
Number of revertants mean [4, 14]: 44
Number of revertants x1, x2, x3 [4, 14]: 53 and 36 and 43
